# From patent US20220323443A1, “COMBINATION THERAPY FOR CANCER TREATMENT” (TAKEDA PHARMACEUTICAL COMPANY LIMITED, priority 2019, published 2022)
# Where a name gives a salt, the structure may show the parent alone. Read-outs that look alike come from different tables or passages of the source.
# How the values were obtained:
# [1] = system: ovarian cancer (SKOV3) cell line; assay: In vitro combination study for selected compounds, additional cell lines; format: cell-based; settings: drug combined with Compound 1
# Experimental: (§1) In vitro anti-proliferative effects of selected compounds were tested in additional cell lines, including ovarian cancer (SKOV3) and pancreatic cancer (MIA-PACA-2) cell lines.
# H-1650 (Lung) = assay: as above; format: cell-based; settings: drug combined with Compound 1
# Experimental: as §1
# [2] = system: pancreatic cancer (MIA-PACA-2) cell line; assay: as above; format: cell-based; settings: drug combined with Compound 1
# Experimental: as §1
# CALU6 (Lung) = assay: as above; format: cell-based; settings: drug combined with Compound 1
# Experimental: as §1
# [3] = system: PHTXM-35Es human primary esophagus cancer xenografts; assay: In vivo combination study, Patient Derived Xenograft; set-up: species or system mouse; settings: PHTXM-35Es (240 mm^3), Compound 1 60 mg/kg once daily Day 1-21
# Experimental: (§2) To investigate in vivo antitumor activity of Compound 1 in combination with other agents, tests using Cell Derived Xenograft (CDX), Patient Derived Xenograft (PDX) and Syngeneic mouse tumor isograft model were conducted. Cells or Patient Derived Tumors were inoculated by one method of the following two methods (Method A and B) as shown Table 7.
# (§3) Method A; Cells were maintained in either immune deficient nude mice or immune competent mice by subcutaneous inoculation of tumor cells at various concentrations into respected mice. Method B: Patient Derived Tumor s were maintained in nude mice by subcutaneous inoculation of tumor pieces (approx. 2×2×2 mm) into nude mice. Mice with tumor size of approximately 50 mm^3 (e.g., 40-75 mm^3) for syngeneic mouse studies or 200 mm^3 (e.g., 110-270 mm^3) for xenograft studies were randomly assigned to dose groups on the day (Day 0) before start date of dosing.
# (§4) Compound 1 (crystalline form I) was suspended in 0.5 w/v % methylcellulose and administered orally to mice. Antibodies which administered in the experiment were described in Table 8.
# (§5) Tumor size was measured by caliper and tumor volume was estimated using the equation V=(LW^2)/2, where L and W are tumor length and width, respectively and reported in cubic millimeters.
# (§6) These values were compared across treatment groups to assess whether the differences in the trends over time were statistically significant. To compare pairs of treatment groups, the following mixed-effects linear regression model was fit to the data using the maximum likelihood method:
# (§7) For synergy analyses, the observed differences in the log tumor values were used to calculate AUC values for each animal. In instances when an animal in a treatment group was removed from the study, the last observed tumor value was carried forward through all subsequent time points. The AUC for the control, or vehicle, group was calculated using the predicted values from the pairwise models described above. We defined a measure of synergy as follows:
# (§8) where Ak and Bk are the k^th animal in the individual treatment groups and ABk is the k^th animal in combination treatment group. AUCcd is the model-predicted AUC for the control group and was treated as a constant with no variability. The standard error of the synergy score was calculated as the square root of the sum of squared standard errors across groups A, B, and AB. The degrees of freedom were estimated using the Welch-Satterthwaite equation. A hypothesis test was performed to determine if the synergy score differed from 0. P values were calculated by dividing the synergy score by its standard error and tested against a t-distribution (two-tailed) with the above-calculated degrees of freedom.
# (§9) The effect was classified into four different categories. It was considered synergistic if the synergy score was less than 0 and additive if the synergy score wasn't statistically different from 0. If the synergy score was greater than zero, but the mean AUC for the combination was lower than the lowest mean AUC among the two single agent treatments, then the combination was sub-additive. If the synergy score was greater than zero, and the mean AUC for the combination was greater than the mean AUC for at least one of the single agent treatments, then the combination was antagonistic.
# PHTXM-90Es (Esophagus) = assay: as above; set-up: species or system mouse; settings: PHTXM-90Es (185 mm^3), Compound 1 60 mg/kg once daily Day 1-21
# Experimental: as §2, §3, §4, §5, §6, §7, §8, §9
# PHTX-11C = assay: In vivo combination study, xenograft; set-up: species or system mouse; settings: PHTX-11C (270 mm^3)
# PHTX-09C (Colorectal) = assay: In vivo combination study, Patient Derived Xenograft; set-up: species or system mouse; settings: PHTX-09C (155 mm^3)
# [4] = system: PHTXM-79Es human primary esophagus cancer xenografts; assay: as above; set-up: species or system mouse; settings: for Result (combination with Compound 1, tumor growth): Compound 1 60 mg/kg once daily Day 1-21; for antitumor activity: combined with Compound 1, PHTXM-79Es human primary esophagus cancer xenografts, FIG. 5B
# Experimental: as §2, §3, §4, §5, §6, §7, §8, §9
# [5] = system: PHTX-249Pa human primary pancreatic xenografts; assay: as above; set-up: species or system mouse; settings: PHTX-249Pa (195 mm^3)
# Experimental: as §2, §3, §4, §5, §6, §7, §8, §9
# PHTXM-97Pa (Pancreatic) = assay: as above; set-up: species or system mouse; settings: PHTXM-97Pa (180 mm^3)
# Experimental: as §2, §3, §4, §5, §6, §7, §8, §9
# H460 cancer cells = assay: In vitro combination study with Compound 1, Cell Titer-Glo (ATP) cell viability, 72 h; format: cell-based; settings: DNA damaging agent combined with Compound 1; 72 h;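 further: Ten-by-ten dose matrices of both drugs alongside single-agent dilutions, luminescence read 72 hours after compound addition, percent activity per well versus vehicle (DMSO) plate controls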
# A549 cancer cells = assay: as above; format: cell-based;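 further: Ten-by-ten dose matrices of the two agents in duplicate, compounds added 16 h post-plating, activity relative to DMSO vehicle wells, call reflects synergy evaluation from luminescence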
# HCT116 cancer cells = assay: as above; format: cell-based; settings: DNA damaging agent combined with Compound 1; 72 h;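 further: combination call from 10×10 dose matrices in duplicate, graded by synergy, with percent activity per well relative to DMSO vehicle controls on the same plate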
# SW48 cancer cells = assay: as above; format: cell-based; settings: DNA damaging agent combined with Compound 1; 72 h
# Experimental: (§10) Each combination pair was evaluated in an individual 384-well plate which contained variable doses of both compounds as single agents, as well as two, ten-by-ten matrices (in duplicate) that contained mixtures of the two test compounds. In brief, compounds were added to the cell test plates 16 hours after cell plating and then assessed for viability 72 hours later. Continuous cultures of tumor cells were maintained under standard cell culturing conditions (i.e. in a humidified chamber set at 37° C., containing atmosphere 5% carbon dioxide). […] Seventy-two hours after compound addition, ATP levels were measured to assess cell viability. Plating densities were chosen to ensure optimal linear growth over the 72 hour period.
# Compound dilution and compound delivery to the assay plates were done on HighRes Robotic System (HighRes Biosolutions, Woburn, Mass., USA) with Echo™ Liquid Handler (Labcyte, Sunnyvale, Calif., USA). First, 384-well low dead volume (LDV) plates containing DMSO (Appendix B) and 10 mM compound stock solutions were used to create the required intermediate compound dilution plates. Next, these were used for compound transfer into cell assay plates. All wells were back-filled to give a constant percentage of DMSO.
# (§11) The final DMSO concentration was held constant in all wells across the plate and was maintained at less than 0.5%. […] Cells treated with vehicle (DMSO) in two rows, or single compound serial dilutions in one plate columns/row served as the untreated control and single compound controls, respectively.
# (§12) Compound activity in A549, COLO205, H460, HCT116, SW48, SW620 cancer cell lines was assessed using Cell Titer-Glo® (Promega [Madison, Wis., USA]). After 72 hours incubation, the plates were treated as per package insert protocol for the Promega Luminescence ATP Detection Systems. Briefly, 25 μL of cell lysis/substrate solution (provided in kit form) was added to each well and the plate was incubated at room temperature for 10 minutes. Luminescence was measured using a PHERAstar multi-label counter (BMG Labtech [Ortenberg, Germany]) or LEADseeker (GE Healthcare Life Sciences [Piscataway, N.J., USA]).
# (§13) Numerical luminescence values were analyzed to generate EC50 curves and evaluate synergy. Raw Data reader files were uploaded along with automation workfiles that defined the plate and well contents. Percent activities were calculated for each well versus plate controls.
# (§14) Each plate representing a single drug combination was analyzed separately. First, the viability measurements were normalized by scaling the data so that the median of the negative controls was 0 and the median of the positive controls was 100.
# (§15) For the combination analysis, a response surface model was used to describe the relationship between the normalized viability and the drug concentrations. The data were fit to the model by minimizing the residual sum of squares. Based on the fitted response surface, plots of constant viability, called isobolograms, were produced.
# (§16) The Combination Index and Nonlinear Blending were used as measures of drug synergy. To calculate Combination Index the 50% isobologram (which is the dose contour that has 50% viability) was used. […] A standard procedure was created to produce a call in order to characterize the viability effects for each combination (synergy, additivity, subadditivity, or antagonism). If the Combination Index existed then these measures were used to make the call.
# COLO205 cancer cells = assay: as above; format: cell-based, human; settings: DNA damaging agent combined with Compound 1; 72 h;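 further: Ten-by-ten dose matrices of both agents in duplicate plus single-agent dilutions, luminescent ATP read-out, percent activity per well relative to DMSO vehicle wells, synergy call from these matrices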
# Experimental: as §10
# (§17) Compound dilution and compound delivery to the assay plates were done on HighRes Robotic System (HighRes Biosolutions, Woburn, Mass., USA) with Echo™ Liquid Handler (Labcyte, Sunnyvale, Calif., USA). […] Next, these were used for compound transfer into cell assay plates. All wells were back-filled to give a constant percentage of DMSO.
# as §11, §12, §13, §14, §15, §16
# SW620 cancer cells = assay: as above; format: cell-based; settings: DNA damaging agent combined with Compound 1; 72 h;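 further: Ten-by-ten dose matrices of both drugs in 384-well plates, luminescent ATP read-out, synergy evaluated against single-agent and DMSO vehicle controls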
# Experimental: as §10, §17, §11, §12, §13, §14, §15, §16
# [6] = drug 25 mg/kg intravenously Days 1-3, 8-10, 15-17
# [7] = Compound 1 40 mg/kg once daily Day 1-21, drug 15 mg/kg intravenously Days 1-3, 8-10, 15-17
# [8] = Compound 1 40 mg/kg once daily Day 1-21, drug 25 mg/kg intravenously Days 1-3, 8-10, 15-17
# [9] = Compound 1 60 mg/kg once daily Day 1-21, drug 15 mg/kg intravenously Days 1-3, 8-10, 15-17
# [10] = Compound 1 60 mg/kg once daily Day 1-21, drug 25 mg/kg intravenously Days 1-3, 8-10, 15-17
# [11] = drug 10 mg/kg intraperitoneally Days 1,5,9,13,17,21
# [12] = Compound 1 20 mg/kg once daily Day 1-21, drug 5 mg/kg intraperitoneally Days 1,5,9,13,17,21
# [13] = Compound 1 20 mg/kg once daily Day 1-21, drug 10 mg/kg intraperitoneally Days 1,5,9,13,17,21
# [14] = Compound 1 40 mg/kg once daily Day 1-21, drug 5 mg/kg intraperitoneally Days 1,5,9,13,17,21
# [15] = Compound 1 40 mg/kg once daily Day 1-21, drug 10 mg/kg intraperitoneally Days 1,5,9,13,17,21
smiles,measurement,setting,value
O=c1[nH]cc(F)c(=O)[nH]1 [Fluorouracil],"In vitro combination effect with Compound 1, Ovary SKOV3",[1],Additive
same,"In vitro combination effect with Compound 1, Lung H-1650",H-1650 (Lung),Additive
same,"In vitro combination effect with Compound 1, Pancreas MIA-PACA-2",[2],Additive
same,"In vitro combination effect with Compound 1, Lung CALU6",CALU6 (Lung),Synergy
same,"Result (combination with Compound 1, tumor growth)",[3]; [6],Additive
same,"Result (combination with Compound 1, tumor growth)",PHTXM-90Es (Esophagus); [6],Additive
same,"Result (combination with Compound 1, tumor growth)",PHTX-11C; [7],Additive
same,"Result (combination with Compound 1, tumor growth)",PHTX-11C; [8],Additive
same,"Result (combination with Compound 1, tumor growth)",PHTX-11C; [9],Additive
same,"Result (combination with Compound 1, tumor growth)",PHTX-11C; [10],subadditive
same,"Result (combination with Compound 1, tumor growth)",PHTX-09C (Colorectal); [7],Additive
same,"Result (combination with Compound 1, tumor growth)",PHTX-09C (Colorectal); [8],Additive
same,"Result (combination with Compound 1, tumor growth)",PHTX-09C (Colorectal); [9],Additive
same,"Result (combination with Compound 1, tumor growth)",PHTX-09C (Colorectal); [10],subadditive
same,"Result (combination with Compound 1, tumor growth)","[4]; PHTXM-79Es (160 mm^3), drug 25 mg/kg intravenously Days 1-3, 8-10, 15-17",Synergistic
same,antitumor activity,[4],strong antitumor activity compared to either single treatment alone
"CCc1c2c(nc3ccc(OC(=O)N4CCC(N5CCCCC5)CC4)cc13)-c1cc3c(c(=O)n1C2)COC(=O)[C@]3(O)CC [Irinotecan (CPT-11), Irinotecan]","Result (combination with Compound 1, tumor growth)",[3]; [11],Additive
same,"Result (combination with Compound 1, tumor growth)",PHTXM-90Es (Esophagus); [11],Synergistic
same,"Result (combination with Compound 1, tumor growth)",[5]; [12],Additive
same,"Result (combination with Compound 1, tumor growth)",[5]; [13],Additive
same,"Result (combination with Compound 1, tumor growth)",[5]; [14],Additive
same,"Result (combination with Compound 1, tumor growth)",[5]; [15],Additive
same,"Result (combination with Compound 1, tumor growth)",PHTXM-97Pa (Pancreatic); [12],Additive
same,"Result (combination with Compound 1, tumor growth)",PHTXM-97Pa (Pancreatic); [13],Additive
same,"Result (combination with Compound 1, tumor growth)",PHTXM-97Pa (Pancreatic); [14],subadditive
same,"Result (combination with Compound 1, tumor growth)",PHTXM-97Pa (Pancreatic); [15],subadditive
same,"Result (combination with Compound 1, tumor growth)","[4]; PHTXM-79Es (160 mm^3) FIG. 5B, drug 10 mg/kg intraperitoneally Days 1,5,9,13,17,21",Additive
same,antitumor activity,[4],strong antitumor activity compared to either single treatment alone
CCc1c2c(nc3ccc(O)cc13)-c1cc3c(c(=O)n1C2)COC(=O)[C@]3(O)CC [SN-38],"Call, anti-proliferative effect of combination with Compound 1, H460",H460 cancer cells,Synergy (0 to 0.7)
same,"Call, anti-proliferative effect of combination with Compound 1, A549",A549 cancer cells,Synergy (key: Inconclusive: Any; Additivity: 0.7 to 1.3; Synergy: 0 to 0.7; Subadditivity: 1.3 to 2; Antagonism: >2)
same,"In vitro combination effect with Compound 1, Ovary SKOV3",[1],Additive
same,"In vitro combination effect with Compound 1, Lung H-1650",H-1650 (Lung),Additive
same,"In vitro combination effect with Compound 1, Pancreas MIA-PACA-2",[2],Additive
same,"Call, anti-proliferative effect of combination with Compound 1, HCT116",HCT116 cancer cells,Synergy (0 to 0.7)
same,"Call, anti-proliferative effect of combination with Compound 1, SW48",SW48 cancer cells,Additivity (0.7 to 1.3)
same,"Call, anti-proliferative effect of combination with Compound 1, COLO205",COLO205 cancer cells,Additivity (0.7 to 1.3)
same,"Call, anti-proliferative effect of combination with Compound 1, SW620",SW620 cancer cells,Synergy (0 to 0.7)
CC[C@@]1(O)C(=O)OCc2c1cc1n(c2=O)Cc2cc3c(CN(C)C)c(O)ccc3nc2-1 [Topotecan hydrochloride],"Call, anti-proliferative effect of combination with Compound 1, H460",H460 cancer cells,Synergy (0 to 0.7)
same,"Call, anti-proliferative effect of combination with Compound 1, A549","A549 cancer cells; DNA damaging agent combined with Compound 1, 72 h",Synergy (0 to 0.7)
same,"In vitro combination effect with Compound 1, Ovary SKOV3",[1],Additive
same,"In vitro combination effect with Compound 1, Lung H-1650",H-1650 (Lung),Additive
same,"In vitro combination effect with Compound 1, Pancreas MIA-PACA-2",[2],Additive
same,"Call, anti-proliferative effect of combination with Compound 1, HCT116",HCT116 cancer cells,Synergy (0 to 0.7)
same,"Call, anti-proliferative effect of combination with Compound 1, SW48",SW48 cancer cells,Additivity (0.7 to 1.3)
same,"Call, anti-proliferative effect of combination with Compound 1, COLO205",COLO205 cancer cells,Synergy (0 to 0.7)
same,"Call, anti-proliferative effect of combination with Compound 1, SW620",SW620 cancer cells,Synergy (0 to 0.7)
